Data from a melting point compilation (Tetko et al.; mined from patent text by program, amines drawn as free bases though some values may be those of a salt).

SMILES	melting point [°C]
COc1cc2c(cc1OC(C)=O)C1Cc3c(Cl)cc(OC)c(OC(C)=O)c3CN1CC2 (single isomer, unassigned; (-))	202 to 203
O=C(O)CS(=O)CCCCCNS(=O)(=O)c1ccc(Cl)cc1 (stereo unspecified)	91 to 92
O=C1NC(C(=O)NCCO[N+](=O)[O-])C(Cc2ccccc2)S1 (stereo unspecified)	123 to 124
CC(C)Oc1cccc2oc(C(=O)O)cc12	148 to 150
CCc1noc(C)c1-c1[nH]c2ccccc2c1CN(C)C	88 to 90
CCC(O)(c1ccc(O)cc1O)c1ccccc1C(F)(F)F (stereo unspecified)	143 to 144
CCCC1=C(C#N)C(c2cccc(Br)c2)c2c[nH]nc2N1 (stereo unspecified)	202 to 205
CCCC1(CCC)CC1(CN)C(=O)O (stereo unspecified)	255 to 257
Cc1nc(N2CCCN(CC3CC3)C2=O)sc1C(=O)NCc1cccnc1	142 to 145
O=C(CCCCc1ccc2c(c1)OCO2)NC1CCCCC1	145 to 146
Fc1ccc2[nH]c3c(c2c1)CN(CCCCc1ccncc1)CC3	210 to 212
CSc1ccc(CN2C(=O)C3(COc4cc5c(cc43)OCO5)c3ccccc32)cc1 (stereo unspecified)	128 to 130
CCc1c(CC(=O)O)c(C)nc(C)c1Cc1nc2c(F)c(F)cc(F)c2s1	193 to 195
O=C(O)c1ccc(-c2nc(-c3c(F)c(F)c(F)c(F)c3F)cs2)cc1	273 to 274
Cc1nnc(-c2ccccc2F)n2nc(OCc3ncn(C)n3)c(-c3ccsc3)c12	214 to 217
N#Cc1ccc(OCCc2c[nH]cn2)cc1	181 to 183
CCOC(=O)C1C(=O)NC(=O)C(CCN(C)C)(c2cccc(OC)c2)C1CC (stereo unspecified)	160 to 162
CCCCCCCCCCCCCCCCC#CCC(CO)COCCCCCCCCCCCCCCCC (stereo unspecified)	46 to 47
Cc1oc(-c2ccc(C(F)(F)F)cc2)cc1C(=O)Nc1cccc(C=O)c1	183 to 184
CN(C)CCCCCNc1nc2cc(Cl)c(Cl)cc2nc1-c1ccccn1	100 to 102
Cc1ccc(N2C(=O)c3ccccc3C2=O)c(Cl)c1Cl	109
CC(=O)NC1Cc2ccc([N+](=O)[O-])cc2C1 (stereo unspecified)	143 to 144
CC(C)(C)c1cc(C(=O)CCl)ccc1Cl	159
NC(C(=O)O)c1ccc(CC(=O)O)cc1 (stereo unspecified)	250

SMILES	melting point [°C]
CC(C)(C)OC(=O)N1Cc2c(Cl)sc(Cl)c2C1	112 to 114
CCOC(=O)C(C(=O)C(F)(F)F)=C(Cc1ccccc1)C(N)C(=O)OCC (stereo unspecified)	63 to 65
CCOc1cc(-c2cc(C(F)F)n3ncc(-c4nc(-c5ccc(N)nc5)no4)c3n2)ccc1C(F)(F)F	250
CC(=O)C1CCC2C3CCC4CC5OC5CC4(C)C3C(OC(=O)CCl)CC12C (stereo unspecified)	163 to 169
CCN(C(C)=O)c1cccc(C(=O)C=CN(C)C)c1	110 to 113
COC(=O)c1ccc(OC)c2c1OCCCO2	212
CCOC(=O)c1cn2c(nc1=O)CCC2C (stereo unspecified)	130
CC(=O)Nc1c(C)nn(C)c1C	118 to 119
CCOC(=O)C1=C(O)[C@H](CC2CCCCC2)NC1=O	176 to 180
O=c1ccc(S(=O)(=O)c2cc3ccc(Cl)cc3[nH]2)n[nH]1	> 250
CON1CCC2(CC1)C(O)=C(c1c(C)cc(C)cc1C)C(=O)N2OC1CCCO1 (stereo unspecified)	144 to 146
CC(C)On1cnc2c(N)nc3ccccc3c21	224 to 225
Fc1ccc(-c2n[nH]cc2-c2ccnc(NC3CC3)n2)cc1	203 to 204
CCOc1c(C(F)(F)F)cc([N+](=O)[O-])c(Nc2ncc(C(F)(F)F)cc2Cl)c1[N+](=O)[O-]	106 to 108
CCOc1nc2cc(Cl)c(Cl)cc2nc1N	191 to 193
O=C(CCC#Cc1ccccn1)Nc1cccc(Cl)c1	168 to 169
Cc1cccc(C2CCN(C(=O)CCC(=O)c3ccc4c(c3)CCNCC4)CC2)c1	91 to 93
Cc1oc2ccc(N)cc2c1C	77 to 78
O=C(NCCN1CCOCC1)Nc1nc2ccc(OCc3c(Cl)cccc3Cl)cc2s1	268 to 271
Cc1nc(-c2ccc(OC(F)(F)F)cc2)sc1C(=O)O	179 to 181
COC(=O)c1cccc2oc(SCCCN3CCN(CC(=O)Nc4c(C(C)C)cccc4C(C)C)CC3)nc12	132 to 133
COc1ccc(CNS(C)(=O)=O)cc1OC	78 to 81
CCOC(=O)N1CCCCN1C(=S)Cl	160 to 162
Cc1nn(-c2ccncc2)c2nc3cc(F)c(F)cc3c(Cl)c12	226 to 228

Now from value to molecule:

melting point [°C]	SMILES
126 to 127	CCOc1cc(Cn2cc(CCC(=O)O)c(-c3ccccc3)c2)cc(OCc2nc(-c3ccccc3)oc2C)c1
119 to 121	COc1ccc(C(=O)Oc2ccc(COc3ccc4c(c3)CCC(CN(C)C)C4)cc2)cc1 (stereo unspecified)
128 to 136	CC1=NC(NC(=O)Nc2cccc(C)c2)C(=O)N(CC(=O)c2ccccc2C)c2c(C)cccc21 (stereo unspecified)
210 to 212	O=C(O)C(Cc1ccc(OCCn2c(-c3ccccc3)nc3ccccc32)cc1)n1cccc1 (stereo unspecified)
50 to 55	C=C(CCC(=O)N1C(=O)OC[C@H]1c1ccccc1)c1ccc(F)cc1F
127 to 129	CCc1cccc2c1C(=O)N(Cn1nnn(-c3ccccc3)c1=S)S2(=O)=O
150 to 151	COc1ccc(Cn2c(Br)nc3c(-c4ccco4)ncnc32)cc1
114 to 117	Oc1cccc(CCCc2cc(C(c3ccccc3)c3ccccc3)on2)c1
145 to 148	CCCc1nc2c(N)nc3cc(OCCc4ccc(F)cc4)ccc3c2s1
136 to 138	CCOc1ccc(-c2nc(OC)ccc2N2CCC(=O)N(c3ccc(OC)cc3)CC2)cc1C
237 to 238	COc1cc(C=CC(=O)Nc2cnc3ccccc3c2-c2ccccc2Cl)cc(OC)c1OC(C)=O
78 to 83	O=S(=O)(Oc1ccc(F)cc1)c1ccc(Oc2ccc(F)cc2)cc1
102 to 104	CC(=O)c1nc2c(OCc3ccccc3)cccc2n1C
> 250	Cc1nccn1-c1cccc(C2=Nc3cc(O)c(-c4ccccc4F)cc3NC(=O)C2)c1
84 to 91	CC(C)(CO)Oc1ccc(CNc2ccc(Cl)cc2)cc1
115 to 118	O=C(c1ccccc1)c1ccc(Nc2nc(Nc3ccc(C(=O)c4ccccc4)cc3)nc(-c3cccn3Cc3ccccc3)n2)cc1
218 to 220	CC(=O)c1cccc(-c2nc(Nc3ccc(OC(F)(F)F)cc3)cc(N3CCOCC3)n2)c1
159 to 160	CCN(CC)C(=O)Cc1cccc(Oc2ccccc2F)c1N
140 to 148	COc1cccc2c1C[C@H]1C[C@@H](CCN3CCN(C(c4ccccc4)c4ccccc4)CC3)CN(C)[C@@H]1C2
95 to 98	CCCn1cc(Cc2ccc(C(=O)NS(=O)(=O)c3ccccc3Cl)cc2OC)c2cc(CCC(C)C(=O)N(C)C)ccc21 (stereo unspecified)
195 to 205	CC(C)(C)CC(=O)NN1C(=O)C(NC(=O)Nc2cccc(N)c2)CC(c2ccccc2)CC1c1ccccc1 (stereo unspecified)
192 to 193	CC(C)(C)C(O)Cn1c(-c2ccccc2[N+](=O)[O-])nc2ccccc21 (stereo unspecified)
123 to 125	O=C(O)c1ccc(NCCc2ccccc2)cc1
